Results from the supplement of paper PMC10307832.

What was measured:
Assay in all cases: relative viability (nuclei count vs DMSO), 5 days (fraction); higher = more cells survive
Irinotecan + Luminespib = compound: CCc1c2c(nc3ccc(OC(=O)N4CCC(N5CCCCC5)CC4)cc13)-c1cc3c(c(=O)n1C2)COC(=O)[C@]3(O)CC [Irinotecan] + CCNC(=O)c1noc(-c2cc(C(C)C)c(O)cc2O)c1-c1ccc(CN2CCOCC2)cc1 [Luminespib] (partner 0.01 µM)
In short: (§1)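 Nuclei were stained with Hoechst during a one-step fixation (final 0.05% Triton X-100, 1% formaldehyde, 1 ug/ml Hoechst) carried out 5 days after dosing, then counted on 4× images. The cells, lung cancer lines in 1536-well plates, had been dosed by pin tool the day after seeding with one drug alone or a fixed anchor-drug dose plus five library-drug doses (not always all listed) in √10 steps. Relative viability is the nuclei count in treated wells divided by that in vehicle wells, and each value is the median of duplicate plates.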

MK-8033 + Luminespib = compound: Cn1cc(-c2cnc3ccc4ccc(CS(=O)(=O)NCc5ccccn5)cc4c(=O)c3c2)cn1 [MK-8033] + CCNC(=O)c1noc(-c2cc(C(C)C)c(O)cc2O)c1-c1ccc(CN2CCOCC2)cc1 [Luminespib] (partner 0.01 µM)
In short: as §1

MK-8033 + Crizotinib = compound: Cn1cc(-c2cnc3ccc4ccc(CS(=O)(=O)NCc5ccccn5)cc4c(=O)c3c2)cn1 [MK-8033] + C[C@@H](Oc1cc(-c2cnn(C3CCNCC3)c2)cnc1N)c1c(Cl)ccc(F)c1Cl [Crizotinib] (partner 1 µM)
In short: as §1

MK-8033 + Phenformin = compound: Cn1cc(-c2cnc3ccc4ccc(CS(=O)(=O)NCc5ccccn5)cc4c(=O)c3c2)cn1 [MK-8033] + N=C(N)NC(=N)NCCc1ccccc1 [Phenformin] (partner 250 µM)
In short: as §1

Cell Line | relative viability (Irinotecan + Luminespib; first compound 2 µM) | relative viability (Irinotecan + Luminespib; first compound 6.325 µM) | relative viability (Irinotecan + Luminespib; first compound 20 µM) | relative viability (MK-8033 + Luminespib; first compound 0.02 µM) | relative viability (MK-8033 + Luminespib; first compound 0.06325 µM) | relative viability (MK-8033 + Luminespib; first compound 0.2 µM) | relative viability (MK-8033 + Luminespib; first compound 0.6325 µM) | relative viability (MK-8033 + Luminespib; first compound 2 µM) | relative viability (MK-8033 + Crizotinib; first compound 0.02 µM) | relative viability (MK-8033 + Crizotinib; first compound 0.06325 µM) | relative viability (MK-8033 + Crizotinib; first compound 0.2 µM) | relative viability (MK-8033 + Crizotinib; first compound 0.6325 µM) | relative viability (MK-8033 + Crizotinib; first compound 2 µM) | relative viability (MK-8033 + Phenformin; first compound 0.02 µM) | relative viability (MK-8033 + Phenformin; first compound 0.06325 µM) | relative viability (MK-8033 + Phenformin; first compound 0.2 µM) | relative viability (MK-8033 + Phenformin; first compound 0.6325 µM) | relative viability (MK-8033 + Phenformin; first compound 2 µM) | relative viability (Irinotecan + Luminespib; first compound 0.6325 µM)
HCC-15 | 0.234 | 0.121 | 0.126 | 0.281 | 0.397 | 0.263 | 0.253 | 0.307 | 0.778 | 0.796 | 0.762 | 0.816 | 0.808 | 0.511 | 0.467 | 0.421 | 0.45 | 0.482 | 
LXF-289 | 0.288 | 0.176 | 0.208 | 0.66 | 0.654 | 0.591 | 0.665 | 0.643 | 0.738 | 0.77 | 0.777 | 0.819 | 0.773 | 0.559 | 0.504 | 0.499 | 0.547 | 0.538 | 0.592
LK-2 | 0.224 | 0.264 | 0.327 | 0.172 |  | 0.265 | 0.187 | 0.26 | 0.228 | 0.226 | 0.244 | 0.23 | 0.25 | 0.708 |  | 0.326 | 0.437 | 0.305 | 0.162
NCI-H2126 | 0.773 | 0.379 | 0.167 | 0.905 | 0.757 | 0.817 | 0.836 | 0.872 | 1.04 | 0.927 | 0.973 | 0.976 | 0.951 | 0.511 | 0.494 | 0.497 | 0.533 | 0.51 | 
NCI-H596 | 0.963 | 0.71 | 0.801 | 1.02 | 0.987 | 0.802 | 1.01 | 0.946 | 0.913 | 0.941 | 0.921 | 0.991 | 1.01 | 0.854 | 0.662 | 0.741 | 0.657 | 0.627 | 0.884
NCI-H3122 | 0.114 | 0.0849 | 0.109 | 0.0907 | 0.0983 | 0.0777 | 0.0917 | 0.0881 | 0.335 | 0.249 | 0.311 | 0.272 | 0.286 | 0.346 | 0.347 | 0.347 | 0.368 | 0.354 | 0.0615
NCI-H727 | 0.455 | 0.501 | 0.494 | 0.434 |  | 0.291 | 0.346 | 0.516 | 0.811 | 0.677 | 0.754 | 0.886 | 0.792 | 0.7 |  | 0.435 | 0.627 | 0.465 | 0.271
NCI-H1355 | 0.515 | 0.308 | 0.278 | 0.695 | 0.686 | 0.607 | 0.74 | 0.646 | 1.07 | 0.988 | 1.03 | 1.05 | 1.02 | 0.444 | 0.401 | 0.424 | 0.435 | 0.432 | 
NCI-H1792 | 0.491 | 0.34 | 0.321 | 0.383 | 0.34 | 0.442 | 0.217 | 0.273 | 1.02 | 0.959 | 0.982 | 0.828 | 1.03 | 0.346 | 0.267 |  | 0.282 | 0.225 | 0.726
NCI-H661 | 0.822 | 0.41 | 0.195 | 0.926 | 0.938 | 0.893 | 0.948 | 0.872 | 0.991 |  | 1.02 | 0.948 | 0.903 | 0.26 | 0.254 | 0.27 | 0.267 | 0.292 | 0.848
